The values below come from ChEMBL document CHEMBL1156366, “Sequoiatones C-f, constituents of the redwood endophyte Aspergillus parasiticus” (J Nat Prod, 2001).

This data set can be described thus: Toxicity against brine shrimp. The format is organism-based. Particulars: artemia, in vivo; read-out: LD50 (the source's name).

In the case of `CCCCCC[C@H](C)C(=O)/C=C1\C(C(=O)OC)=C2C=COC(C)=C2[C@]1(C)O` [SEQUOIATONE C], the LC50 was determined as 260 µM.
Then `COC(=O)C1=C2C=C(C)OC=C2[C@](C)(O)/C1=C/C(=O)[C@@H](C)CCCCCCO` [SEQUOIATONE D], with 1300 µM.
For `COC(=O)C1=C2C=COC(C)=C2[C@](C)(O)/C1=C/C(=O)[C@@H](C)CCCCCCO` [SEQUOIATONE E], the LC50 is 640 µM.
Then `CCCCCC[C@H](C)C(=O)/C=C1\C(C(=O)OC)=C2C=C(C)OC=C2[C@]1(C)O` [SEQUOIATONE F], with 260 µM.
